Reference: patent US20260132132A1, “3A,4,5,6-TETRAHYDRO-1 H-PYRAZOLO[3,4-C]PYRIDIN-7(7AH)-ONE DERIVATIVES AS FACTOR XIIA INHIBITORS” (KALVISTA PHARMACEUTICALS LIMITED, priority 2022, published 2026)

molecular target: T1, Human Factor XIIa (hFXIIa) (Homo sapiens, UniProt P00748); experiment: Determination of Human Factor XIIa (hFXIIa) inhibition, fluorogenic substrate IC50 assay; type: biochemical; conditions: fluorogenic substrate H-DPro-Phe-Arg-AFC at Km, 25° C., read-out: Human FXIIa IC50
T1 construct: purchased Enzyme Research Laboratories
T1 sequence (P00748 373-615 limits assumed): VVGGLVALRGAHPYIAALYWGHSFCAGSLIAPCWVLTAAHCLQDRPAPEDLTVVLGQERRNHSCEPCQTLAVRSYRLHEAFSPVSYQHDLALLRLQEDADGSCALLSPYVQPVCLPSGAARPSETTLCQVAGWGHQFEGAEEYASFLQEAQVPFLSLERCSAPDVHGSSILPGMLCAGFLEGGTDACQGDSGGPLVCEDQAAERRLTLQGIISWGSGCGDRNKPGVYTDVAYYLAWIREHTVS
T1 sequence (P00748 20-372 partner limits assumed): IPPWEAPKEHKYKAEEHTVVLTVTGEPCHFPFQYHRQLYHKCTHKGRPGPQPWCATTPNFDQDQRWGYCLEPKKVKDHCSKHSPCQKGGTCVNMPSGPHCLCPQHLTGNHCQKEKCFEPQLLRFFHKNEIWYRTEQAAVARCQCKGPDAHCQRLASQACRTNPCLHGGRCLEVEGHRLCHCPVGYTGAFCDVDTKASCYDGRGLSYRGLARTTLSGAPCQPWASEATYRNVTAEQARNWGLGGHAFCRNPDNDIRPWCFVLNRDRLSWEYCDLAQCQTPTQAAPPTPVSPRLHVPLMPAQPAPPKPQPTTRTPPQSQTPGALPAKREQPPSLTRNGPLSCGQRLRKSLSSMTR
Experimental: Determination of Human Factor XIIa (hFXIIa) inhibition
The Km for the cleavage of the substrate by hFXIIa was determined by standard transformation of the Michaelis-Menten equation, with subsequent inhibition assays performed at substrate Km concentration.

Compound | IC50 [nM]
CCOCCN1CCc2ccc(N3CCc4c(C(=O)NCC5CC5)nn(-c5cccc(Cl)c5)c4C3=O)cc2C1 [Example 1061, 1-(3-chlorophenyl)-N-(cyclopropylmethyl)-6-(2-(2-ethoxyethyl)-1,2,3,4-tetrahydroisoquinolin-7-yl)-7-oxo-4,5,6,7-tetrahydro-1H-pyrazolo[3,4-c]pyridine-3-carboxamide] | 100 to 300
Cc1cc(CNC(=O)c2nn(-c3cccc(Cl)c3)c3c2CCN(c2ccc4c(c2)C(=O)N(CC2CCCO2)CC4)C3=O)nn1C (centres unmarked) [Example 1293, 1-(3-chlorophenyl)-N-((1,5-dimethyl-1H-pyrazol-3-yl)methyl)-7-oxo-6-(1-oxo-2-((tetrahydrofuran-2-yl)methyl)-1,2,3,4-tetrahydroisoquinolin-7-yl)-4,5,6,7-tetrahydro-1H-pyrazolo[3,4-c]pyridine-3-carboxamide] | 100 to 300
COc1cccnc1CNC(=O)c1nn(-c2cccc(Cl)c2)c2c1CCN(c1cc3c(cn1)CCN(CCO)C3)C2=O [Example 1221, 1-(3-chlorophenyl)-6-(6-(2-hydroxyethyl)-5,6,7,8-tetrahydro-2,6-naphthyridin-3-yl)-N-((3-methoxypyridin-2-yl)methyl)-7-oxo-4,5,6,7-tetrahydro-1H-pyrazolo[3,4-c]pyridine-3-carboxamide] | 10 to 100
CCN1CCc2c(COC)cc(N3CCc4c(C(=O)NCC5CC5)nn(-c5cccc(Cl)c5)c4C3=O)cc2C1 [Example 1169, 1-(3-Chlorophenyl)-N-(cyclopropylmethyl)-6-(2-ethyl-5-(methoxymethyl)-1,2,3,4-tetrahydroisoquinolin-7-yl)-7-oxo-4,5,6,7-tetrahydro-1H-pyrazolo[3,4-c]pyridine-3-carboxamide] | 100 to 300
Cn1cc(CNC(=O)c2nn(-c3cccc(Cl)c3)c3c2CCN(c2ccc4c(c2)CN(CCO)CC4)C3=O)cn1 [Example 1133, 1-(3-chlorophenyl)-6-(2-(2-hydroxyethyl)-1,2,3,4-tetrahydroisoquinolin-7-yl)-N-((1-methyl-1H-pyrazol-4-yl)methyl)-7-oxo-4,5,6,7-tetrahydro-1H-pyrazolo[3,4-c]pyridine-3-carboxamide] | 100 to 300
NC(=O)CN1CCc2ccc(N3CCc4c(C(=O)NCC5CC5)nn(-c5cccc(Cl)c5)c4C3=O)cc2C1 [Example 1033, 6-(2-(2-amino-2-oxoethyl)-1,2,3,4-tetrahydroisoquinolin-7-yl)-1-(3-chlorophenyl)-N-(cyclopropylmethyl)-7-oxo-4,5,6,7-tetrahydro-1H-pyrazolo[3,4-c]pyridine-3-carboxamide] | 1000 to 3000
O=C(NCC1CC1)c1nn(-c2cccc(Cl)c2)c2c1CCN(c1ccc3c(c1)CN(C1CCCC1O)CC3)C2=O (centres unmarked) [Example 1119, 1-(3-chlorophenyl)-N-(cyclopropylmethyl)-6-(2-(2-hydroxycyclopentyl)-1,2,3,4-tetrahydroisoquinolin-7-yl)-7-oxo-4,5,6,7-tetrahydro-1H-pyrazolo[3,4-c]pyridine-3-carboxamide] | 300 to 1000
Cc1n[nH]c(C)c1CNC(=O)c1nn(-c2cccc(Cl)c2)c2c1CCN(c1ccc3c(c1)C(=O)N(C)CC3)C2=O [Example 1268, 1-(3-chlorophenyl)-N-((3,5-dimethyl-1H-pyrazol-4-yl)methyl)-6-(2-methyl-1-oxo-1,2,3,4-tetrahydroisoquinolin-7-yl)-7-oxo-4,5,6,7-tetrahydro-1H-pyrazolo[3,4-c]pyridine-3-carboxamide] | 300 to 1000
CN(C(=O)c1cccc(N2CCc3c(C(=O)NCC4CC4)nn(-c4cccc(Cl)c4)c3C2=O)c1)C1CC1 [Example 1270, 1-(3-chlorophenyl)-6-(3-(cyclopropyl(methyl)carbamoyl)phenyl)-N-(cyclopropylmethyl)-7-oxo-4,5,6,7-tetrahydro-1H-pyrazolo[3,4-c]pyridine-3-carboxamide] | 10000 to 40000
O=C(NCc1cc(C2CC2)[nH]n1)c1nn(-c2cccc(Cl)c2)c2c1CCN(c1ccc3c(c1)C(=O)N(CCO)CC3)C2=O [Example 1259, 1-(3-chlorophenyl)-N-((5-cyclopropyl-1H-pyrazol-3-yl)methyl)-6-(2-(2-hydroxyethyl)-1-oxo-1,2,3,4-tetrahydroisoquinolin-7-yl)-7-oxo-4,5,6,7-tetrahydro-1H-pyrazolo[3,4-c]pyridine-3-carboxamide] | 100 to 300
O=C(Cn1nc(-c2cccc(Cl)c2)c2c1CCN(c1ccc3c(c1)CN(CCO)CC3)C2=O)NC1CC1 [Example 4004, 2-(3-(3-chlorophenyl)-5-(2-(2-hydroxyethyl)-1,2,3,4-tetrahydroisoquinolin-7-yl)-4-oxo-4,5,6,7-tetrahydro-1H-pyrazolo[4,3-c]pyridin-1-yl)-N-cyclopropylacetamide] | 1000 to 3000
CN1CCc2ccc(N3CCc4c(C(=O)NCC(O)C5CC5)nn(-c5cccc(Cl)c5)c4C3=O)cc2C1 (centres unmarked) [Example 1058, 1-(3-chlorophenyl)-N-(2-cyclopropyl-2-hydroxyethyl)-6-(2-methyl-1,2,3,4-tetrahydroisoquinolin-7-yl)-7-oxo-4,5,6,7-tetrahydro-1H-pyrazolo[3,4-c]pyridine-3-carboxamide] | 300 to 1000
O=C(O)CN1CCc2ccc(N3CCc4c(C(=O)NCC5CC5)nn(-c5cccc(Cl)c5)c4C3=O)cc2C1 [Example 1095, 2-(7-(1-(3-chlorophenyl)-3-((cyclopropylmethyl)carbamoyl)-7-oxo-1,4,5,7-tetrahydro-6H-pyrazolo[3,4-c]pyridin-6-yl)-3,4-dihydroisoquinolin-2(1H)-yl)acetic acid] | 1000 to 3000
CCC(C)N1CCc2ccc(N3CCc4c(C(=O)NCC5CC5)nn(-c5cccc(Cl)c5)c4C3=O)cc2C1 (centres unmarked) [Example 1059, 6-(2-(sec-butyl)-1,2,3,4-tetrahydroisoquinolin-7-yl)-1-(3-chlorophenyl)-N-(cyclopropylmethyl)-7-oxo-4,5,6,7-tetrahydro-1H-pyrazolo[3,4-c]pyridine-3-carboxamide] | 100 to 300
O=C(NCC1CC1)c1nn(-c2cccc(Cl)c2)c2c1CCN(c1cccc(CN3CCCC3)c1)C2=O [Example 1072, 1-(3-Chlorophenyl)-N-(cyclopropylmethyl)-7-oxo-6-(3-(pyrrolidin-1-ylmethyl)phenyl)-4,5,6,7-tetrahydro-1H-pyrazolo[3,4-c]pyridine-3-carboxamide] | 1000 to 3000
Cc1cccnc1CNC(=O)c1nn(-c2cccc(Cl)c2)c2c1CCN(c1ccc3c(c1)CN(CCO)CC3)C2=O [Example 1136, 1-(3-chlorophenyl)-6-(2-(2-hydroxyethyl)-1,2,3,4-tetrahydroisoquinolin-7-yl)-N-((3-methylpyridin-2-yl)methyl)-7-oxo-4,5,6,7-tetrahydro-1H-pyrazolo[3,4-c]pyridine-3-carboxamide] | 10 to 100
CNC(=O)NCCN1CCc2ccc(N3CCc4c(C(=O)NCC5CC5)nn(-c5cccc(Cl)c5)c4C3=O)cc2C1 [Example 1084, 1-(3-chlorophenyl)-N-(cyclopropylmethyl)-6-(2-(2-(3-methylureido)ethyl)-1,2,3,4-tetrahydroisoquinolin-7-yl)-7-oxo-4,5,6,7-tetrahydro-1H-pyrazolo[3,4-c]pyridine-3-carboxamide] | 100 to 300
O=C(NCc1ccccc1)c1nn(-c2cccc(Cl)c2)c2c1CCN(c1cccc(CN3CCOCC3)c1)C2=O [Example 1018, N-benzyl-1-(3-chlorophenyl)-6-(3-(morpholinomethyl)phenyl)-7-oxo-4,5,6,7-tetrahydro-1H-pyrazolo[3,4-c]pyridine-3-carboxamide] | 1000 to 3000
CCOC(=O)c1nn(-c2cccc(Cl)c2)c2c1CCN(c1cccc(CN(C)C(=O)CO)c1)C2=O [Example 1322, ethyl 1-(3-chlorophenyl)-6-(3-((2-hydroxy-N-methylacetamido)methyl)phenyl)-7-oxo-4,5,6,7-tetrahydro-1H-pyrazolo[3,4-c]pyridine-3-carboxylate] | 10000 to 40000
O=C(NCC1CC1)c1nn(-c2cccc(Cl)c2)c2c1CCN(c1cccc(N3CCOCC3=O)c1)C2=O [Example 1313, 1-(3-chlorophenyl)-N-(cyclopropylmethyl)-7-oxo-6-(3-(3-oxomorpholino)phenyl)-4,5,6,7-tetrahydro-1H-pyrazolo[3,4-c]pyridine-3-carboxamide] | 3000 to 10000
COCCN(C)C(=O)c1cccc(N2CCc3c(C(=O)NCC4CC4)nn(-c4cccc(Cl)c4)c3C2=O)c1 [Example 1311, 1-(3-chlorophenyl)-N-(cyclopropylmethyl)-6-(3-((2-methoxyethyl)(methyl)carbamoyl)phenyl)-7-oxo-4,5,6,7-tetrahydro-1H-pyrazolo[3,4-c]pyridine-3-carboxamide] | 3000 to 10000
CCNC(=O)c1nn(-c2cccc(Cl)c2)c2c1CCN(c1ccc3c(c1)C(=O)N(C)CC3)C2=O [Example 1297, 1-(3-chlorophenyl)-N-ethyl-6-(2-methyl-1-oxo-1,2,3,4-tetrahydroisoquinolin-7-yl)-7-oxo-4,5,6,7-tetrahydro-1H-pyrazolo[3,4-c]pyridine-3-carboxamide] | 300 to 1000
CN1CCc2ccc(N3CCc4c(C(=O)N5CCOCC5)nn(-c5cccc(Cl)c5)c4C3=O)cc2C1=O [Example 1272, 7-(1-(3-chlorophenyl)-3-(morpholine-4-carbonyl)-7-oxo-1,4,5,7-tetrahydro-6H-pyrazolo[3,4-c]pyridin-6-yl)-2-methyl-3,4-dihydroisoquinolin-1(2H)-one] | 3000 to 10000
